# US20200360322A1, “FORMULATIONS AND DOSAGE FORMS FOR ENHANCING PERFORMANCE OR RECOVERY FROM STRESS” (ACTIVATE BIO PHYSICS CORP., priority 2017, published 2020)
# Tests used:
# [1] = four- to seven-day alcohol poisoning or acute barbiturate poisoning
# [2] = test system: animal after a 10-minute stop of blood flow; conditions: cited from earlier work
# [3] = molecular target: SUCNR1 (Homo sapiens, UniProt Q9BXA5); conditions: cited from earlier work
# Sequence of SUCNR1 (Q9BXA5 whole entry, species assumed): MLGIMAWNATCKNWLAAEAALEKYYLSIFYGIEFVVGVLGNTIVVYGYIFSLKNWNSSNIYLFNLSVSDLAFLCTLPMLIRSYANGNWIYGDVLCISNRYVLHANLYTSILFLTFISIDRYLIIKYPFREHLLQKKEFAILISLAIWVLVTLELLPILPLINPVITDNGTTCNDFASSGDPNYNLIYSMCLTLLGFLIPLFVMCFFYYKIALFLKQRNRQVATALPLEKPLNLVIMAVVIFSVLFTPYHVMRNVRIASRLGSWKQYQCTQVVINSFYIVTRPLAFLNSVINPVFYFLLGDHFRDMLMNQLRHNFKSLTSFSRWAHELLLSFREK
structure (smiles),measurement,setting,value
"O=C(O)CCC(=O)O [natural conformer of succinic acid, succinic acid]",severe intoxication,[1],contributes to the prevention of severe intoxication
O=C([O-])CCC(=O)[O-].[Na+].[Na+] [sodium succinate],condition of the central nervous system,[2]; abdominal injection after the stop of blood flow,"not only fails to improve, but can aggravate, the condition of the central nervous system"
O=C(O)CCC(=O)O [succinate],concentration in interstitial fluid and blood sufficient for SUCNR1 activation and HIF dimer stabilization,[3],2.10^−4 mol
same,concentration needed to activate SUCNR1 or to stabilize HIF,[3],150 ± 180 µmol
O=C(O)CCC(=O)O [succinic acid],central nervous system recovery,[2]; oral administration,improves the central nervous system's recovery
